In ChEMBL document CHEMBL4602696, “LMP2 Inhibitors as a Potential Treatment for Alzheimer's Disease” (J Med Chem, 2020):
The source made the active and inactive calls. No cut-off for these calls is given here.

Key:
BV-2 [1] = experiment: Antiinflammatory activity against mouse BV2 cells assessed as reduction in LPS-induced IL-1alpha release after 24 hrs by ELISA; format: functional, cell-based
Mus musculus [2] = experiment: Antialzheimer activity in transgenic Tg2576 ICR mouse at 10 mg/kg, iv administered twice per week for 3 weeks by Morris water maze test; format: functional, organism-based
[3] = molecular target: T1, Proteasome subunit beta type-9 (Homo sapiens) (UniProt P28065); experiment: Inhibition of LMP2 in human ARPE-19 cells assessed as suppression of TNFalpha-stimulated EMT by measuring E-cadherin expression after 24 hrs by immunofluorescence analysis; format: cell-based
T1 sequence (whole entry): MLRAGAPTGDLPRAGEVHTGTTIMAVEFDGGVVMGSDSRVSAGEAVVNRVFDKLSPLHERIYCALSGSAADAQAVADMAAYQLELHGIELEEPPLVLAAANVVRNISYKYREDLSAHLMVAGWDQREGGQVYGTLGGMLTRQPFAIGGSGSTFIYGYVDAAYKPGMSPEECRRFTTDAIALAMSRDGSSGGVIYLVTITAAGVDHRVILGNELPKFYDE

RPMI-8226 = experiment: Cytotoxicity against human RPM18226 cells up to 10 uM after 72 hrs by CellTiter 96 aqueous one solution reagent based assay; format: cell-based; settings: rpmi-8226, 72 h
[4] = molecular target: T1, Proteasome subunit beta type-9 (Homo sapiens); experiment: Inhibition of LMP2 in human ARPE-19 cells assessed as suppression of TNFalpha-stimulated EMT by measuring vimentin expression after 24 hrs by immunofluorescence analysis; format: cell-based
[5] = molecular target: T2, Proteasome subunit beta type-8 (Homo sapiens, UniProt P28062); experiment: Inhibition of LMP7 in human 20S immunoproteasome using Ac-ANW-AMC as substrate after 1 hr by fluorescence based microplate reader analysis
T2 sequence (P28062 whole entry): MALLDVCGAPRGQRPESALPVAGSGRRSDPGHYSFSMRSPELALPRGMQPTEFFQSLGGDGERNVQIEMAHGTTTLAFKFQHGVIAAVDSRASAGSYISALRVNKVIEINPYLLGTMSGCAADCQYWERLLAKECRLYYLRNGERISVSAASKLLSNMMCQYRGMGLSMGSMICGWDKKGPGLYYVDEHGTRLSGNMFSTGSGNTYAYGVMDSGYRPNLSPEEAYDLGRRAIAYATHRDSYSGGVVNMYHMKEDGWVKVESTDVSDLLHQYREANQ

[6] = molecular target: T3, Proteasome subunit beta type-9 (Homo sapiens, UniProt P28065); experiment: Inhibition of LMP2 in human 20S immunoproteasome using Ac-PAL-AMC as substrate after 1 hr by fluorescence based microplate reader analysis
T3 sequence (P28065 whole entry): T1 sequence (whole entry)

Mus musculus [7] = experiment: Antialzheimer activity in transgenic Tg2576 ICR mouse assessed as reduction in IL-1alpha level in serum at 10 mg/kg, iv administered twice per week for 3 weeks by ELISA; format: functional, organism-based
BV-2 [8] = experiment: Cytotoxicity against mouse BV2 cells up to 10 uM after 72 hrs by CellTiter 96 aqueous one solution reagent based assay; format: cell-based; settings: bv-2, 72 h
[9] = molecular target: T1, Proteasome subunit beta type-9 (Homo sapiens); experiment: Inhibition of LMP2 subunit in human DLD1 cells over expressing ABCB1 at 1 uM using Ac-PAL-AMC as substrate incubated for 4 hrs; format: cell-based; settings: DLD-1
WI-38 = experiment: Cytotoxicity against human WI38 cells up to 10 uM after 72 hrs by CellTiter 96 aqueous one solution reagent based assay; format: cell-based; settings: wi-38, 72 h
[10] = Inhibition of LMP7/Beta 5 subunit chymotrypsin-like activity in human RPM18226 cell lysates using Suc-LLVY-AMC as substrate after 1 hr by fluorescence based microplate reader analysis; format: cell-free; settings: rpmi-8226
[11] = Toxicity in transgenic Tg2576 ICR mouse at 10 mg/kg, iv administered twice per week for 3 weeks; format: organism-based; settings: in vivo, 504 h
Mus musculus [12] = experiment: Antineuroinflammatory activity in APP transgenic Tg2576 mouse assessed as inhibition of retinal pigment epithelium degeneration at 10 mg/kg, iv administered twice per week for 3 weeks by immuno staining based confocal microscopic analysis relative to control; format: functional; design: scale not given: the % may be the effect or the level left
[13] = molecular target: T4, Proteasome Macropain subunit MB1 (Homo sapiens, UniProt P28074); experiment: Inhibition of Beta5 in human 20S […] usingAc-WLA-AMC as substrate after 1 hr by fluorescence based microplate reader analysis
T4 sequence (P28074 whole entry): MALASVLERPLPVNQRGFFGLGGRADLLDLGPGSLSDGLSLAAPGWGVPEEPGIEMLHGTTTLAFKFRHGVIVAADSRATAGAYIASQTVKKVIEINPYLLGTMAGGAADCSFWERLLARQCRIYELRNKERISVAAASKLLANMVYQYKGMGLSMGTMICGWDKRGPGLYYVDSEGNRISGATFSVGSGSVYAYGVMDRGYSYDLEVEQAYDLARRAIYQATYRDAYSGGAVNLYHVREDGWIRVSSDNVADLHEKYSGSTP

[14] = molecular target: T1, Proteasome subunit beta type-9 (Homo sapiens); experiment: Inhibition of immunoproteasome LMP2 subunit in human DLD1 cells over expressing ABCB1 at 3 uM using Ac-PAL-AMC as substrate incubated for 4 hrs in presence of reversin-121; format: cell-based; settings: DLD-1

SMILES: CC(C)C[C@H](NC(=O)[C@H](Cc1ccccc1)NC(=O)[C@@H]1CCCN1C(=O)CNC(=O)c1cnccn1)C(=O)[C@@]1(C)CO1
- Activity (BV-2 [1]): Active
- Activity (Mus musculus [2]): Active
- inhibition [3]: Active
- Activity (RPMI-8226): Non-Toxic
- inhibition [4]: Active
- IC50 [5]: > 10 µM
- IC50 [6]: 0.07 to 0.0806 µM
- Activity (Mus musculus [7]): Active
- Activity (BV-2 [8]): Non-Toxic
- inhibition [9]: Active
- Activity (WI-38): Non-Toxic
- IC50 [10]: > 10 µM
- Activity [11]: Non-Toxic
- Activity (Mus musculus [12]): 100%
- IC50 [13]: > 10 µM
- inhibition [14]: Active
